Results taken from PMC9698483, “Berbamine Reduces Chloroquine-Induced Itch in Mice through Inhibition of MrgprX1” (International Journal of Molecular Sciences, 2022).

Tests used:
[1] = tested on: PAR2-AP-induced itch; test: PAR2-AP-induced pruritus in mice (scratching bouts); type: in vivo, BALB/c mice; details: 30 mg/kg i.p., PAR2-AP 100 μg/50 μL
Protocol: To investigate the antipruritic effect of berbamine, we observed the effect of berbamine on pruritogen-induced scratching behavior in BALB/c mice. Mice were transferred to clear cages and treated with berbamine intraperitoneally after a 30 min acclimatization period. Mouse behavior was recorded for 30 min right after the subcutaneous injection of pruritogens to the nape 30 min after berbamine treatment (Figure 7A). […] We further investigated the effect of berbamine on pruritus caused by other pruritogens.
Figure 7 Effect of berbamine on acute pruritogen-induced pruritus in mice: (A) Scheme of acute pruritogen-induced pruritus mouse model. […] Statistical significance of differences between each group and CQ group was assessed using one-way ANOVA with Tukey’s post hoc test. * p < 0.05, ** p < 0.01, *** p < 0.001. […] Statistical significance of differences was determined using Student’s t-test. […]
[…] six-week-old BALB/c male mice were purchased from DBL (Chungcheong-do, Republic of Korea), and an additional 1 week was given for accommodation. […] After 30 min, pruritogen compounds (i.e., CQ, histamine, PAR2-AP, and DCA) were subcutaneously administered into the nape, and scratching bouts were recorded for 30 min. […] The total number of scratching bouts was counted by recording the number of scratching bouts in the recorded video over 30 min of observation time.

[2] = molecular target: T1, histamine H1 receptor (H1R) (Homo sapiens, UniProt P35367); test: Histamine-induced activation of H1R in H1R-expressing HEK293T cells (calcium); type: cell-based; details: 30 μM compound, 10 min prior to 100 μM histamine
T1 construct: expressed in transfected cells; host or cells: HEK293T
T1 sequence (P35367 whole entry, species assumed): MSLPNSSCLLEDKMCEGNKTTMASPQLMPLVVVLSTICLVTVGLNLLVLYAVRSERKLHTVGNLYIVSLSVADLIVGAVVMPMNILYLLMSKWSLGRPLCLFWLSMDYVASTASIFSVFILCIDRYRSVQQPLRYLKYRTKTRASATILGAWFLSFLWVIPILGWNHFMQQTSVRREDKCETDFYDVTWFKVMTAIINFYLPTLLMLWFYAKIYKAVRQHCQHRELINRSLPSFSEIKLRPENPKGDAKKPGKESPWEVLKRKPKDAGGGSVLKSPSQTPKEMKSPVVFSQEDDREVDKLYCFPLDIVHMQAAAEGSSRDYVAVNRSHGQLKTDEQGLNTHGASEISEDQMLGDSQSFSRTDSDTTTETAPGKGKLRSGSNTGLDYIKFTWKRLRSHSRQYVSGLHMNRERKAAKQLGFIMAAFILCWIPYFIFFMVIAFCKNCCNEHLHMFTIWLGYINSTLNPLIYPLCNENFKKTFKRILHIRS
Protocol: (§1) To investigate the effect of berbamine on other pruritogenic GPCRs, we observed the effect of berbamine on histamine H1 receptor (H1R), histamine H4 receptor (H4R), MrgprC11, MrgprX4, PAR2, and TGR5.
(§2) Figure 3 Effects of berbamine on the activity of other pruritogenic GPCRs: (A,B) Effect of berbamine on histamine 1 receptor (H1R) and histamine 4 receptor (H4R). H1R- and H4R-expressing HEK293T cells were pretreated with 30 μM BBM for 10 min prior to 100 μM histamine treatment. […] (C) Effect of berbamine on PAR2. HT29 cells were pretreated with BBM for 10 min prior to 30 μM PAR2-AP treatment. […] (D) Effect of berbamine on MrgprC11. MrgprC11-expressing HEK293T cells were pretreated with BBM for 10 min prior to 100 μM […] treatment. (E) Effect of berbamine on MrgprX4. MrgprX4-expressing HEK293T cells were pretreated with BBM for 10 min prior to 80 μM DCA treatment. (F) Effect of berbamine on TGR5. TGR5 activity was measured using a YFP fluorescence quenching assay. CHO-K1 cells coexpressing TGR5 and a halide sensor YFP were pretreated with BBM and 80 μM DCA for 10 min prior to I^- treatment. Results were summarized as means ± S.E. (n = 6). NTC, nontransfected cells.
(§3) Intracellular calcium levels were measured using a Fluo-4 NW calcium assay kit (Invitrogen, Carlsbad, CA) as per the manufacturer’s protocol in HEK293T and HT29 cells. […]

[3] = molecular target: T2, histamine H4 receptor (H4R) (Homo sapiens, UniProt Q9H3N8); test: Histamine-induced activation of H4R in H4R-expressing HEK293T cells (calcium); type: cell-based; details: 30 μM compound, 10 min prior to 100 μM histamine
T2 construct: expressed in transfected cells; host or cells: HEK293T
T2 sequence (Q9H3N8 whole entry, species assumed): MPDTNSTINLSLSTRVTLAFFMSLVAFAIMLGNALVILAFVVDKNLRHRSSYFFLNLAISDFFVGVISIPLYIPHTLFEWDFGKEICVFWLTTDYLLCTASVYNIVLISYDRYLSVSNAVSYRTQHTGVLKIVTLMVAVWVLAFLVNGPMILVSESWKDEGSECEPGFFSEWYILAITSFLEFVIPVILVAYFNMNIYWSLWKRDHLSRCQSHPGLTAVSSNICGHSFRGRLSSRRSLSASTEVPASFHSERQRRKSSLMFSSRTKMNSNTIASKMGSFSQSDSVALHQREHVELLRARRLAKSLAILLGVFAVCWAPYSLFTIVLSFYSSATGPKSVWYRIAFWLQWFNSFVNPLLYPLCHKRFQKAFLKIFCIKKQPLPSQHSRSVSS
Protocol: as §1, §2, §3

[4] = tested on: HEK293T cells; test: Ionomycin-induced increase in intracellular calcium levels in HEK293T cells; type: cell-based; details: 10 μM ionomycin, 10 min pretreatment
Protocol: To investigate whether berbamine and closantel affect calcium signaling pathways, we observed the effects of berbamine and closantel on CQ- and ionomycin-induced increases in intracellular calcium concentrations in HEK-MrgprX1 and HEK293T cells, respectively.
Figure 2 Effect of berbamine and closantel on CQ- and ionomycin-induced increases in intracellular calcium levels: (A,B) Intracellular calcium levels were measured using Fluo−4 NW in HEK293T cells expressing MrgprX1. The cells were pretreated with the indicated concentrations of berbamine (BBM) and closantel (CLS) for 10 min prior to treatment with 300 μM CQ. (C) Summary of dose-response (mean ± S.E., n = 6). (D,E) Intracellular calcium levels were increased with 10 μM ionomycin in HEK239T cells. The cells were pretreated with the indicated concentrations of BBM and CLS for 10 min before treatment with ionomycin. (F) Summary of dose–response (mean ± S.E., n = 6).
Intracellular calcium levels were measured using a Fluo-4 NW calcium assay kit (Invitrogen, Carlsbad, CA) as per the manufacturer’s protocol in HEK293T and HT29 cells. […] After 1 h of incubation, Fluo-4 fluorescence was recorded with a FLUOstar Omega microplate reader equipped with syringe pumps and custom Fluo-4 excitation/emission filters (485/538 nm). […]

COc1cc2c3cc1Oc1c(OC)c(OC)cc4c1[C@@H](Cc1ccc(O)c(c1)Oc1ccc(cc1)C[C@@H]3N(C)CC2)N(C)CC4 [berbamine]
effect on total scratching bouts induced by PAR2-AP [1]: no significant effect | effect on histamine-induced activation of H1R [2]: did not affect | effect on histamine-induced activation of H4R [3]: did not affect | effect on ionomycin-induced increase in intracellular calcium levels [4]: no effect
